# Measured values: article PMC5282547, “The Proline/Arginine Dipeptide from Hexanucleotide Repeat Expanded C9ORF72 Inhibits the Proteasome” (eNeuro, 2017)
# Where no end group is shown, it is not given here.
# Legend:
# [1] = test system: U2OS cells and human astrocytes; conditions: depending on the specific assay; ref Kwon et al., 2014; cited from earlier work
# Source text: The difficulty of distinguishing between toxic HRE mRNA and DPR proteins has impeded our understanding of the mechanism underlying C9ORF72 HRE pathophysiology. As reported in Science ([Kwon et al., 2014]), the McKnight lab devised a strategy to overcome this problem: they studied U2OS cells and human astrocytes directly exposed to synthetic DPR proteins. […] We built upon this approa ...
# [2] = test system: motor neurons; assay: Motor neuron survival with IU1 co-treatment; assay type: cell-based, rat; conditions: PR20 treatment without IU1, 5 d
# Protocol: Days in vitro (DIV)14 mixed spinal cord cultures were exposed to PR20 or GR20 by addition of synthetic peptide to the media one time. Cultures were fixed 5 d later with freshly prepared 4% paraformaldehyde for 20 min, washed extensively with 0.1 M PBS, pH 7.4, and immunostained with SMI32 to identify motor neurons. […] Motor neurons were counted in three nonoverlapping, randomly selected fields on a coverslip using a 5[times objective, and the values from a single coverslip averaged.
# For experiments involving IU1, DIV14 cultures were treated with PR20 or its vehicle, and every other day, IU1 (or vehicle) was added to the culture media to achieve a final concentration of 5 µM. At DIV19, cultures were fixed and motor neuron number determined as described above.
# [3] = test system: ubiquitin-proteasome system; assay: MG-132 flux assay (flux of ubiquitylated substrates through the UPS); assay type: cell-based, rat
# Protocol: MG-132 (Sigma) was used to inhibit proteasomal function. Cells were initially treated with PR20 for a total of 48 h using the method outlined in PR20 treatment for biochemical assays. Four hours prior to lysis, these cells were treated with MG-132 or vehicle. The MG-132 was kept in a stock solution in DMSO. This was added directly to culture to achieve a final concentration of 5 μM. Cells were then lysed in RIPA buffer and immunoblotted for ubiquitin.
# (§1) Ubiquitin analysis requires the use of deubiquitinase (DUB) inhibitors. Lysis without these inhibitors runs the risk of degradation of the substrates to be targeted. As such, N-ethylmaleimide (Sigma), a potent DUB inhibitor, was used in the lysis buffer. […] The remainder of the lysis procedure follows Cell lysis.
# To test for group differences in the flux assay, a permutation test was used. This is a nonparametric statistical test that was implemented in MATLAB. […] The test first quantifies this by taking the average of each experimental group and then finding the difference of ratios. It then permutes two samples located in two groups randomly, and determines that difference between averages again. This is repeated 50,000 times, and a histogram is plotted. This histogram represents the distribution of random noise in the sample. Since a higher difference in the +MG132/−MG132 ratio is a more “significant” result, the percentage of the random noise produced from 50,000 permutations that is higher in magnitude than the true difference (calculated from un-permuted data) is the p value.
# Permutations of a data point in a +MG132 into a group labeled −MG132 (or vice versa) were not allowed. […] Thus, this group difference was not interesting to us.
# [4] = test system: total ubiquitylated protein; assay: Ubiquitylation assay (total cellular ubiquitin immunoblot); assay type: cell-based, rat; conditions: 2 µM, 2, 4, 8, 16 h; significant at 2, 8 and 16 h
# Protocol: The ubiquitylation assay involved acute time point treatments with PR20. 16 h prior to scheduled lysis, two dishes were treated to a final concentration of 2 μM PR20 using the methods described in the PR20 treatment for biochemical assays subsection. This was repeated 8 h prior to lysis, 4 h prior to lysis, and 2 h prior to lysis. Samples were then lysed in RIPA buffer as described in Cell lysis for ubiquitin blots and processed for Western blot analysis.
# as §1
# [5] = test system: phosphorylated S6K and 4EBP1; assay: Immunoblot for mTOR pathway activation; assay type: cell-based, rat; conditions: 2 µM, 48 h, immunoblot normalized to actin
# Protocol: All plates were incubated with PR20 for 48 h.
# Once scanning of the nitrocellulose membranes probed for 4EBP1/P-4EBP1 and S6K/P-S6K had been completed, Restore Western Blot Stripping Buffer (Thermo Fisher Scientific) was used to strip the blot of antibodies. The membranes were washed twice in PBS-T for 10 min each and then placed in the stripping buffer for 22 min. The membranes were then washed twice once again in PBS-T for 10 min. They were then placed in blocking solution (5% w/v milk in PBS-T) for 45 min.
# [6] = test system: human proteasomes; assay: Direct interaction with human proteasomes (streptavidin pull-down, anti-HA immunoblot); assay type: binding; conditions: 2 µM HA-tagged peptide, HEK293T extracts with HTBH-tagged β4 subunits, 2 h at 4 °C
# Protocol: Whole-cell extracts from a stable HEK293T cell line harboring HTBH-tagged β4 subunits were prepared as in Han et al. (2014) and incubated with HA-tagged PR20 or GR20 peptides (2 µM) 2 h at 4 °C. The resulting proteasome-dipeptide complexes were pull-downed with streptavidin agarose beads (Millipore) for 3 h at 4 °C. Unbound proteasomes in the supernatants were discarded, and the pellets were mixed with 2× SDS sample buffer. Different amounts of samples were resolved by SDS-PAGE/immunoblotting against HA and a proteasome core particle α3 subunit.
sequence,measurement,setting,value
PRPRPRPRPRPRPRPRPRPRPRPRPRPRPRPRPRPRPRPRYPYDVPDYA [PR20],toxic concentration range,[1],10 to 30 µM
same,loss of motor neurons,[2],approximately 50%
same,proteasomal flux versus vehicle after 2 h of exposure,"[3]; 2 h PR20, ±MG132, n = 6 per group, p = 0.38",no statistically significance
same,proteasomal flux (difference in ubiquitin +/- MG-132) versus vehicle,"[3]; peptide 48 h (PR20 2 µM), then MG-132 5 µM or vehicle 4 h, permutation test",reduced
same,total ubiquitylated protein levels over time,[4],progressive increase
same,activation level of the mTOR pathway versus vehicle,[5],no statistically significant differences
same,association with proteasomes in pull-down,[6],associates with proteasomes
